From ChEMBL document CHEMBL5335807, “Rational design, synthesis and biological evaluation of novel HIV-1 protease inhibitors containing 2-phenylacetamide derivatives as P2 ligands with potent activity against DRV-Resistant HIV-1 variants” (Bioorg Med Chem Lett, 2024)

Key:
[1] = biological target: Human immunodeficiency virus type 1 protease (Human immunodeficiency virus 1, UniProt Q72874); test: Inhibition of HIV-1 protease by fluorescence resonance energy transfer analysis
[2] = test system: Human immunodeficiency virus 1; test: Antiviral activity against HIV-1 NL4-3 assessed as inhibition of viral growth; assay type: functional, organism-based; conditions: Human immunodeficiency virus 1, NL4-3
[3] = test system: Human immunodeficiency virus 1; test: Antiviral activity against DRV-resistant HIV-1 assessed as inhibition of viral growth by single-round infection assay; assay type: functional, organism-based; conditions: Human immunodeficiency virus 1, DRV
[4] = Resistance index, ratio of EC50 for antiviral activity against DRV-resistant HIV-1 to EC50 for antiviral activity against wild type HIV-1 NL4-3; assay type: functional, Human immunodeficiency virus 1

Row | SMILES | IC50 [1] | other results
1 | COc1ccc(S(=O)(=O)N(CC(C)C)C[C@@H](O)[C@H](Cc2ccccc2)NC(=O)Cc2ccc(O)cc2)cn1 | 0.00726 µM | –
2 | COc1ccc(S(=O)(=O)N(CC(C)C)C[C@@H](O)[C@H](Cc2ccccc2)NC(=O)Cc2ccc(O)cc2)cc1 | 0.00222 µM | –
3 | COc1ccc(CC(=O)N[C@@H](Cc2ccccc2)[C@H](O)CN(CC(C)C)S(=O)(=O)c2ccc(SC)cc2)cc1 | 0.0858 µM | –
4 | COc1ccc(CC(=O)N[C@@H](Cc2ccccc2)[C@H](O)CN(CC(C)C)S(=O)(=O)c2ccc(SC)cc2)cc1OC | 0.171 µM | –
5 | COc1cc(CC(=O)N[C@@H](Cc2ccccc2)[C@H](O)CN(CC(C)C)S(=O)(=O)c2ccc(SC)cc2)ccc1O | 0.116 µM | –
6 | COc1ccc(S(=O)(=O)N(CC(C)C)C[C@@H](O)[C@H](Cc2ccccc2)NC(=O)Cc2ccc(OC)c(OC)c2)cn1 | 0.176 µM | –
7 | COc1ccc(CC(=O)N[C@@H](Cc2ccccc2)[C@H](O)CN(CC(C)C)S(=O)(=O)c2ccc(OC)cc2)cc1 | 0.021 µM | –
8 | COc1ccc(S(=O)(=O)N(CC(C)C)C[C@@H](O)[C@H](Cc2ccccc2)NC(=O)Cc2cccc(O)c2)cn1 | 0.0012 µM | EC50 [2]: 0.95 µM; EC50 [3]: 5.02 µM; Ratio EC50 [4]: 5.26
9 | CC(C)CN(C[C@@H](O)[C@H](Cc1ccccc1)NC(=O)Cc1ccc(O)cc1)S(=O)(=O)c1ccc(N)cc1 | 0.032 µM | –
10 | COc1ccc(S(=O)(=O)N(CC(C)C)C[C@@H](O)[C@H](Cc2ccccc2)NC(=O)Cc2ccc(OC)c(O)c2)cn1 | 0.013 µM | –
11 | COc1ccc(S(=O)(=O)N(CC(C)C)C[C@@H](O)[C@H](Cc2ccccc2)NC(=O)Cc2ccc(OC)c(O)c2)cc1 | 0.00397 µM | –
12 | COc1cccc(CC(=O)N[C@@H](Cc2ccccc2)[C@H](O)CN(CC(C)C)S(=O)(=O)c2ccc(N)cc2)c1 | 0.0351 µM | –
13 | COc1cccc(CC(=O)N[C@@H](Cc2ccccc2)[C@H](O)CN(CC(C)C)S(=O)(=O)c2ccc(OC)nc2)c1 | 0.0125 µM | –
14 | COc1ccc(S(=O)(=O)N(CC(C)C)C[C@@H](O)[C@H](Cc2ccccc2)NC(=O)Cc2ccc(OC)c(OC)c2)cc1 | 0.085 µM | –
15 | COc1ccc(S(=O)(=O)N(CC(C)C)C[C@@H](O)[C@H](Cc2ccccc2)NC(=O)Cc2ccc(O)c(OC)c2)cn1 | 0.17 µM | –
16 | COc1ccc(CC(=O)N[C@@H](Cc2ccccc2)[C@H](O)CN(CC(C)C)S(=O)(=O)c2ccc(N)cc2)cc1OC | 1.02 µM | –

Row | SMILES | IC50 [1] | other results
17 | COc1ccc(S(=O)(=O)N(CC(C)C)C[C@@H](O)[C@H](Cc2ccccc2)NC(=O)Cc2ccc(O)c(O)c2)cc1 | 0.00054 µM | EC50 [2]: 1.86 µM; EC50 [3]: 23.2 µM; Ratio EC50 [4]: 12.5
18 | COc1cc(CC(=O)N[C@@H](Cc2ccccc2)[C@H](O)CN(CC(C)C)S(=O)(=O)c2ccc(N)cc2)ccc1O | 0.379 µM | –
19 | COc1ccc(S(=O)(=O)N(CC(C)C)C[C@@H](O)[C@H](Cc2ccccc2)NC(=O)Cc2cccc(O)c2)cc1 | 0.00087 µM | EC50 [2]: 1.05 µM; EC50 [3]: 8.85 µM; Ratio EC50 [4]: 8.43
20 | CSc1ccc(S(=O)(=O)N(CC(C)C)C[C@@H](O)[C@H](Cc2ccccc2)NC(=O)Cc2ccc(O)c(O)c2)cc1 | 0.00229 µM | –
21 | COc1ccc(S(=O)(=O)N(CC(C)C)C[C@@H](O)[C@H](Cc2ccccc2)NC(=O)Cc2cccc(OC)c2)cc1 | 0.00695 µM | –
22 | CC(C)CN(C[C@@H](O)[C@H](Cc1ccccc1)NC(=O)Cc1ccc(O)c(O)c1)S(=O)(=O)c1ccc(N)cc1 | 0.00946 µM | –
23 | CSc1ccc(S(=O)(=O)N(CC(C)C)C[C@@H](O)[C@H](Cc2ccccc2)NC(=O)Cc2ccc(O)cc2)cc1 | 0.0042 µM | –
24 | COc1ccc(S(=O)(=O)N(CC(C)C)C[C@@H](O)[C@H](Cc2ccccc2)NC(=O)Cc2ccc(O)c(OC)c2)cc1 | 0.05 µM | –
25 | COc1ccc(CC(=O)N[C@@H](Cc2ccccc2)[C@H](O)CN(CC(C)C)S(=O)(=O)c2ccc(SC)cc2)cc1O | 0.00928 µM | –
26 | COc1ccc(CC(=O)N[C@@H](Cc2ccccc2)[C@H](O)CN(CC(C)C)S(=O)(=O)c2ccc(N)cc2)cc1 | 0.377 µM | –
27 | COc1ccc(CC(=O)N[C@@H](Cc2ccccc2)[C@H](O)CN(CC(C)C)S(=O)(=O)c2ccc(OC)nc2)cc1 | 0.0518 µM | –
28 | CC(C)CN(C[C@@H](O)[C@H](Cc1ccccc1)NC(=O)Cc1cccc(O)c1)S(=O)(=O)c1ccc(N)cc1 | 0.00555 µM | –
29 | COc1cccc(CC(=O)N[C@@H](Cc2ccccc2)[C@H](O)CN(CC(C)C)S(=O)(=O)c2ccc(SC)cc2)c1 | 0.0304 µM | –
30 | CSc1ccc(S(=O)(=O)N(CC(C)C)C[C@@H](O)[C@H](Cc2ccccc2)NC(=O)Cc2cccc(O)c2)cc1 | 0.00218 µM | EC50 [2]: 0.94 µM; EC50 [3]: 2.36 µM; Ratio EC50 [4]: 2.51
31 | COc1ccc(S(=O)(=O)N(CC(C)C)C[C@@H](O)[C@H](Cc2ccccc2)NC(=O)Cc2ccc(O)c(O)c2)cn1 | 0.00287 µM | –
32 | COc1ccc(CC(=O)N[C@@H](Cc2ccccc2)[C@H](O)CN(CC(C)C)S(=O)(=O)c2ccc(N)cc2)cc1O | 0.0275 µM | –
